# Earlier results, collected in patent US7674810B2, “1,1-dioxo-1H-1Λ6-benzo[d]isothiazol-3-yl)-4-hydroxy-1,5-dihydro-pyrrol-2-one inhibitors of HCV polymerase” (Roche Palo Alto LLC, priority 2006, dated 2010).
# System: HCV
# Details: cited from earlier work
compound,measurement,setting,value
"NC(=O)c1ncn([C@@H]2O[C@H](CO)[C@@H](O)[C@H]2O)n1 [ribavirin, 1-((2R,3R,4S,5R)-3,4-dihydroxy-5-hydroxymethyl-tetrahydro-furan-2-yl)-1H-[1,2,4]triazole-3-carboxylic acid amide]",effect on serum levels of HCV-RNA,monotherapy / sole treatment,does not lower serum levels of HCV-RNA
same,patients in whom serum amino transferase levels are reduced to normal,monotherapy,40%
